In test [1] the target is T1, AXL (Homo sapiens, UniProt P30530).
T1 sequence (P30530 26-894): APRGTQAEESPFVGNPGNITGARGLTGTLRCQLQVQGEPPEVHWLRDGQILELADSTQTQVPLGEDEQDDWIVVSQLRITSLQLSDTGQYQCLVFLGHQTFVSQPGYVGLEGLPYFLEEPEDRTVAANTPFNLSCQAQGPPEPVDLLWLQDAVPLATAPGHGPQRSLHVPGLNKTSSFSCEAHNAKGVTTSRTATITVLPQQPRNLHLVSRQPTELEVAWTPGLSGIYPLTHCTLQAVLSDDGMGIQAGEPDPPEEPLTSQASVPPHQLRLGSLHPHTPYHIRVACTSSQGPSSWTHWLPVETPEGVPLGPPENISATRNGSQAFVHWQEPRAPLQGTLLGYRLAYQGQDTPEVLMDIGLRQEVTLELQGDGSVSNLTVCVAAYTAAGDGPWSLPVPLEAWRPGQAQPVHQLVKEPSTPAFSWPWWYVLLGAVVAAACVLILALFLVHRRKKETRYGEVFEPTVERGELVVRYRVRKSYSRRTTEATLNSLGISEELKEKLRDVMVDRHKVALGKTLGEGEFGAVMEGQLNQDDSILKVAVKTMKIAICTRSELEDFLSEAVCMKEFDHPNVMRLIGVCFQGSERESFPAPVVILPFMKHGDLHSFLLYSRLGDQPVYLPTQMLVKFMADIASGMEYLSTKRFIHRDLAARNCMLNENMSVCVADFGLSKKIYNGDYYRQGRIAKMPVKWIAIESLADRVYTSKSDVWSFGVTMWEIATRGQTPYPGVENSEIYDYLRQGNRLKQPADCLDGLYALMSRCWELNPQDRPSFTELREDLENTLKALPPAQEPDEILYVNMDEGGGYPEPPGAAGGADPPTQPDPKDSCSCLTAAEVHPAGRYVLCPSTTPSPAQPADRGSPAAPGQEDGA
The experiment in a line: TR-FRET kinase activity assay, AXL. Type of test: biochemical. Particulars: ATP at Km, 60 minutes. In outline: (§1)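 IC50s come from loss of TR-FRET between a Eu-labeled phospho-site antibody and fluorescent tyrosine-phosphorylated peptide. Kinase reactions, initiated with Km ATP, ran 60 min at RT at pH 7.5 before EDTA quench.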

The target of test [2] is T2, TYRO3 (Homo sapiens, UniProt Q06418).
T2 sequence (Q06418 41-890): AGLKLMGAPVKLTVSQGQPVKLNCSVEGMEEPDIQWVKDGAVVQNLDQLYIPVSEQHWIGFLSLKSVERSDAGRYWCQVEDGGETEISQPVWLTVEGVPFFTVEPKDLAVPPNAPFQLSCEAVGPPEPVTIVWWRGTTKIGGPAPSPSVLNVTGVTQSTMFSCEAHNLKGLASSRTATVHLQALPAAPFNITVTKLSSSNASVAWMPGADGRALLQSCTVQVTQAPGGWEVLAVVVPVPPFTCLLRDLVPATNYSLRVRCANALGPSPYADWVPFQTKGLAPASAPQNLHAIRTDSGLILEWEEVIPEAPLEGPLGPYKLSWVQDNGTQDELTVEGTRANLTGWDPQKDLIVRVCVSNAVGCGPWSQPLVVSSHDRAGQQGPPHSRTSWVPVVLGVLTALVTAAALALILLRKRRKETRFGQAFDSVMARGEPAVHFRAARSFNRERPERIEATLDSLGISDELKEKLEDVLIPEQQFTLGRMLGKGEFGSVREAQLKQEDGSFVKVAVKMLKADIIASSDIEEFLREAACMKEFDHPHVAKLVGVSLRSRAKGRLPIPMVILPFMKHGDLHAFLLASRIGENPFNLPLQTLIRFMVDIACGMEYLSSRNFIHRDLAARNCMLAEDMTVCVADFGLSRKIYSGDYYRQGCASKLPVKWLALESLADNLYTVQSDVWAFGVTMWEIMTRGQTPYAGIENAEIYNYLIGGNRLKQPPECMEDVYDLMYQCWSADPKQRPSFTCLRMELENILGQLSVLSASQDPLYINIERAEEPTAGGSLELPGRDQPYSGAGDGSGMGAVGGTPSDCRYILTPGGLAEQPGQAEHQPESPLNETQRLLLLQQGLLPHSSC
Briefly: TR-FRET kinase activity assay, TYRO3. Type of test: biochemical. The following applies: ATP at Km, 60 minutes. In outline:
as §1
In general terms: Time-resolved FRET reads energy transfer from a long-lived donor to a nearby acceptor.

`CC(=O)N[C@H]1C[C@@H](Oc2ncc([C@H]3CC[C@H](O)CC3)c3nc(N[C@@H](C)CC(F)(F)F)ncc23)C1` [Compound 433]: the IC50 in test [1] and in test [2] was at most 100 nM in each case.
`CO[C@H]1C[C@@H](Oc2ncc([C@H]3CC[C@H](O)CC3)c3nc(N[C@@H](C)CC(F)(F)F)ncc23)C1` [Compound 434]: the IC50 was 100 to 1000 nM in test [1] and at most 100 nM in test [2].
On the same counts, the results for `COC(=O)N[C@H]1C[C@@H](Oc2ncc([C@H]3CC[C@H](O)CC3)c3nc(N[C@@H](C)CC(F)(F)F)ncc23)C1` [Compound 435] are at most 100 nM and at most 100 nM.
The like results for `CC(=O)N1[C@@H]2CC[C@H]1C[C@H](Oc1ncc([C@H]3CC[C@H](O)CC3)c3nc(N[C@@H](C)CC(F)(F)F)ncc13)C2` [Compound 436] were, in that order, at most 100 nM and at most 100 nM.
The like results for `C[C@@H](CC(F)(F)F)Nc1ncc2c(O[C@@H]3C[C@H]4CC[C@@H](C3)N4C3COC3)ncc([C@H]3CC[C@H](O)CC3)c2n1` [Compound 437] were, in that order, at most 100 nM and at most 100 nM.

Broadly, the IC50 is the concentration needed to halve the response being measured. The low end stands for higher potency, the high end for lower potency.

Values taken from US20200291018A1, “TAM KINASE INHIBITORS” (SYROS PHARMACEUTICALS, INC., priority 2017, published 2020).
